Laboratory results reported in patent publication US8466149B2, “6-substituted sulfonyl azabicyclo[3.2.1]octanes useful to inhibit 11β-hydroxysteroid dehydrogenase type-I” (Merck Sharp & Dohme Corp., priority 2007, dated 2013).

Legend:
11β-HSD-1 = molecular target: T1, 11β-HSD-1 (Mus musculus, UniProt P50172); assay: In vivo screen for inhibition of 11β-HSD-1 (mouse cortisone challenge, plasma cortisol); conditions: 30 mpk oral, lean male C57BI/6N mice, cortisone 1 mg/kg sc, plasma cortisol by ELISA
T1 construct: from tissue; host or cells: whole animal, C57Bl/6N mice
T1 sequence (P50172 whole entry): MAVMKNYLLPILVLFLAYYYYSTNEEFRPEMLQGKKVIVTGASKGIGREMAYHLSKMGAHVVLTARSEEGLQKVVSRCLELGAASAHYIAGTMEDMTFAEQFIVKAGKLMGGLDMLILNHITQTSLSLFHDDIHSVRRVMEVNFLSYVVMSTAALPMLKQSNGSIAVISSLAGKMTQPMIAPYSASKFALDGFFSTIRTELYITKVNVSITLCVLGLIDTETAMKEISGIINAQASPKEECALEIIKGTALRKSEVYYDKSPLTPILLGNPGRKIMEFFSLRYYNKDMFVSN
Protocol: In Vivo Screen for Inhibition of 11β-HSD-1
Lean male C57BI/6N mice were orally dosed with a solution of dexamethasone (0.5 mg/kg) and test agent or vehicle (20% HPβCD (10 ml/kg)). One hour later, cortisone was administered (1 mg/kg sc in sesame oil). One hour after cortisone administration, animals were euthanized for blood collection, and plasma cortisol levels were determined with a commercially available ELISA.

Mouse 11β-HSD-1 = Mouse 11β-HSD-1 (Mus musculus, UniProt P50172); assay: In vitro 11β-HSD1 activity assay, mouse enzyme; type: biochemical
Sequence of Mouse 11β-HSD-1 (P50172 whole entry): as above
Protocol: (§1) Measurement of 11β-HSD1 activity
(§2) 11β-HSD1 enzymatic activity was measured in a 50 μl reaction containing 20 mM NaPO4 pH 7.5, 0.1 mM MgCl2, 3 mM NADPH (prepared fresh daily), 125 nM ^3H-cortisone (American Radiochemicals) and 0.5 μg membrane. The reaction was incubated at room temperature for 1 hr before it was stopped by addition of […] containing 20 mM NaPO4 pH 7.5, 30 μM 18β-glycyrrhetinic acid, 1 μg/ml monoclonal anti-cortisol antibody (Biosource) and 2 mg/ml anti-mouse antibody coated scintillation proximity assay (SPA) beads (Amersham Bioscience). The mixture was incubated at room temperature for 2 hrs with vigorous shaking and analyzed on TopCount scintillation counter.

Human 11β-HSD1 = molecular target: T2, Human 11β-HSD1 (Homo sapiens, UniProt P28845); assay: In vitro 11β-HSD1 activity assay (SPA, 3H-cortisone, membranes); type: biochemical; conditions: human 11β-HSD1 membranes, 125 nM 3H-cortisone, read-out: Human 11β-HSD-1 IC50
T2 construct: myc (N); made in house; host or cells: Sf9 cells (baculovirus, Bac-to-Bac)
T2 sequence (P28845 whole entry): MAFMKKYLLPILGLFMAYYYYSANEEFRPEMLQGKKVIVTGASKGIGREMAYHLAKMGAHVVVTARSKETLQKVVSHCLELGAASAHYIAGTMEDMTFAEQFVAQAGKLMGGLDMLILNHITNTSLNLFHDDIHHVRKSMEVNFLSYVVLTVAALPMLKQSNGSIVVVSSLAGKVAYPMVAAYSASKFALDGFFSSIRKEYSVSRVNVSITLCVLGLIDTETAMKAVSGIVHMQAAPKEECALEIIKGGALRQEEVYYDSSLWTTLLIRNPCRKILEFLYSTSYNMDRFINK
Protocol: In vitro 11β-HSD1 activity assay Preparation of 11β-HSD1 membranes
Human 11β-HSD1 with N-terminal myc tag was expressed in Sf9 cells using baculovirus Bac-to-Bac expression system (Invitrogen) according to manufacturer's instructions. Cells were harvested three days after infection and washed in PBS before frozen. To make membranes, the cells were resuspended in buffer A (20 mM Tris-HCl, pH7.4, 100 mM NaCl, 2 mM EDTA, 2 mM EGTA and Complete™ protease inhibitor tablets (Roche Molecular Biochemicals)), and lysed in a nitrogen bomb at 900 psi. The cell lysate was centrifuged at 600 g for 10 min to remove nuclei and large cell debris. The supernatant was centrifuged at 100,000 g for 1 hr. The membrane pellet was resuspended in buffer A, flash-frozen in liquid nitrogen and stored at −70° C. before use.
as §1, §2

SMILES: CC1(C)CC2CC(C)(CN2S(=O)(=O)c2ccc(C(C)(C)C)cc2)C1 (stereo not drawn) [Compound No. 1]
- Mouse cort. challenge % I @ 30 mpk (11β-HSD-1): 30%
- IC50 (Mouse 11β-HSD-1): 71 nM
- IC50 (Human 11β-HSD1): 31 nM

SMILES: Cc1ccccc1S(=O)(=O)N1CC2(C)CC1CC(C)(C)C2 (stereo not drawn) [Compound No. 5]
- IC50 (Mouse 11β-HSD-1): 18200 nM
- IC50 (Human 11β-HSD1): 3010 nM

SMILES: Cc1ccc(S(=O)(=O)N2CC3(C)CC2CC(C)(C)C3)cc1 (stereo not drawn) [Compound No. 6]
- IC50 (Mouse 11β-HSD-1): 670 nM
- IC50 (Human 11β-HSD1): 247 nM

SMILES: CC(=O)c1ccc(S(=O)(=O)N2CC3(C)CC2CC(C)(C)C3)cc1 (stereo not drawn) [Compound No. 16]
- IC50 (Mouse 11β-HSD-1): 732 nM
- IC50 (Human 11β-HSD1): 139 nM

SMILES: CCC(C)(C)c1ccc(S(=O)(=O)N2CC3(C)CC2CC(C)(C)C3)cc1 (stereo not drawn) [Compound No. 23]
- Mouse cort. challenge % I @ 30 mpk (11β-HSD-1): 26%
- IC50 (Mouse 11β-HSD-1): 19 nM
- IC50 (Human 11β-HSD1): 28 nM

SMILES: CC1(C)CC2CC(C)(CN2S(=O)(=O)c2ccc(Cl)c3nonc23)C1 (stereo not drawn) [compound 3]
- IC50 (Mouse 11β-HSD-1): 1870 nM
- IC50 (Human 11β-HSD1): 407 nM

SMILES: CC1(C)CC2CC(C)(CN2S(=O)(=O)Cc2ccccc2)C1 (stereo not drawn) [compound 4]
- IC50 (Mouse 11β-HSD-1): 7930 nM
- IC50 (Human 11β-HSD1): 3390 nM

SMILES: CCc1ccc(S(=O)(=O)N2CC3(C)CC2CC(C)(C)C3)cc1 (stereo not drawn) [compound 9]
- IC50 (Mouse 11β-HSD-1): 420 nM
- IC50 (Human 11β-HSD1): 190 nM

SMILES: COc1cccc(S(=O)(=O)N2CC3(C)CC2CC(C)(C)C3)c1 (stereo not drawn) [compound 10]
- IC50 (Mouse 11β-HSD-1): 3170 nM
- IC50 (Human 11β-HSD1): 2510 nM

SMILES: CC1(C)CC2CC(C)(CN2S(=O)(=O)c2ccccc2Cl)C1 (stereo not drawn) [compound 12]
- IC50 (Mouse 11β-HSD-1): 28200 nM
- IC50 (Human 11β-HSD1): 1410 nM

SMILES: CC1(C)CC2CC(C)(CN2S(=O)(=O)c2ccc(Cl)cc2)C1 (stereo not drawn) [compound 13]
- IC50 (Mouse 11β-HSD-1): 2480 nM
- IC50 (Human 11β-HSD1): 407 nM

SMILES: CC(C)c1ccc(S(=O)(=O)N2CC3(C)CC2CC(C)(C)C3)cc1 (stereo not drawn) [compound 17]
- IC50 (Mouse 11β-HSD-1): 127 nM
- IC50 (Human 11β-HSD1): 67 nM

SMILES: CC1(C)CC2CC(C)(CN2S(=O)(=O)c2ccc(-c3ccccc3)cc2)C1 (stereo not drawn) [compound 25]
- IC50 (Mouse 11β-HSD-1): 364 nM
- IC50 (Human 11β-HSD1): 169 nM

SMILES: CC1(C)CC2CC(C)(CN2S(=O)(=O)c2ccccc2C#N)C1 (stereo not drawn) [compound 29]
- IC50 (Mouse 11β-HSD-1): 13300 nM
- IC50 (Human 11β-HSD1): 5710 nM

SMILES: CC1(C)CC2CC(C)(CN2S(=O)(=O)c2ccc(I)cc2)C1 (stereo not drawn) [compound 32]
- IC50 (Mouse 11β-HSD-1): 3170 nM
- IC50 (Human 11β-HSD1): 2510 nM

SMILES: CC(O)c1ccc(S(=O)(=O)N2CC3(C)CC2CC(C)(C)C3)cc1 (stereo not drawn) [compound 44]
- Mouse cort. challenge % I @ 30 mpk (11β-HSD-1): 63%
- IC50 (Mouse 11β-HSD-1): 67 nM
- IC50 (Human 11β-HSD1): 16 nM

SMILES: COC(C)c1ccc(S(=O)(=O)N2CC3(C)CC2CC(C)(C)C3)cc1 (stereo not drawn) [compound 45]
- Mouse cort. challenge % I @ 30 mpk (11β-HSD-1): 16%
- IC50 (Mouse 11β-HSD-1): 27 nM
- IC50 (Human 11β-HSD1): 19 nM

SMILES: CCOC(C)c1ccc(S(=O)(=O)N2CC3(C)CC2CC(C)(C)C3)cc1 (stereo not drawn) [compound 46]
- IC50 (Mouse 11β-HSD-1): 87 nM
- IC50 (Human 11β-HSD1): 10 nM

SMILES: CC1(C)CC2CC(C)(CN2S(=O)(=O)c2ccc(C(F)(F)F)cc2)C1 (stereo not drawn) [compound 48]
- IC50 (Mouse 11β-HSD-1): 686 nM
- IC50 (Human 11β-HSD1): 268 nM

SMILES: COC(C)(C)c1ccc(S(=O)(=O)N2CC3CC(C)(C2)CC3(C)C)cc1 (stereo not drawn) [compound 49]
- Mouse cort. challenge % I @ 30 mpk (11β-HSD-1): 19%
- IC50 (Mouse 11β-HSD-1): 11 nM
- IC50 (Human 11β-HSD1): 23 nM

SMILES: CC1(C)CC2CC(C)(CN2S(=O)(=O)c2ccc(C(C)(C)O)cc2)C1 (stereo not drawn) [compound 50]
- Mouse cort. challenge % I @ 30 mpk (11β-HSD-1): 43%
- IC50 (Mouse 11β-HSD-1): 43 nM
- IC50 (Human 11β-HSD1): 7 nM

SMILES: CC1(C)CC2CC(C)(CN2S(=O)(=O)c2ccc(C3CCCCC3)cc2)C1 (stereo not drawn) [compound 61]
- IC50 (Mouse 11β-HSD-1): 165 nM
- IC50 (Human 11β-HSD1): 415 nM

SMILES: CC1(C)CC2CC(C)(CN2S(=O)(=O)c2ccc(-c3cnco3)cc2)C1 (stereo not drawn) [compound 62]
- IC50 (Mouse 11β-HSD-1): 309 nM
- IC50 (Human 11β-HSD1): 96 nM

SMILES: CC1(C)CC2CC(C)(CN2S(=O)(=O)c2ccc(-c3csnn3)cc2)C1 (stereo not drawn) [compound 63]
- IC50 (Mouse 11β-HSD-1): 305 nM
- IC50 (Human 11β-HSD1): 111 nM

SMILES: CC(C)Oc1ccc(S(=O)(=O)N2CC3(C)CC2CC(C)(C)C3)cc1 (stereo not drawn) [compound 64]
- IC50 (Mouse 11β-HSD-1): 217 nM
- IC50 (Human 11β-HSD1): 340 nM

SMILES: CCCCc1ccc(S(=O)(=O)N2CC3(C)CC2CC(C)(C)C3)cc1 (stereo not drawn) [compound 65]
- IC50 (Mouse 11β-HSD-1): 950 nM
- IC50 (Human 11β-HSD1): 372 nM

SMILES: CCC(C)c1ccc(S(=O)(=O)N2CC3(C)CC2CC(C)(C)C3)cc1 (stereo not drawn) [compound 68]
- IC50 (Mouse 11β-HSD-1): 112 nM
- IC50 (Human 11β-HSD1): 55 nM

SMILES: CCC(C)(O)c1ccc(S(=O)(=O)N2CC3(C)CC2CC(C)(C)C3)cc1 (stereo not drawn) [compound 69]
- IC50 (Mouse 11β-HSD-1): 68 nM
- IC50 (Human 11β-HSD1): 30 nM

SMILES: CC1(C)CC2CC(C)(CN2S(=O)(=O)c2ccc([N+](=O)[O-])cc2)C1 (stereo not drawn) [compound 75]
- IC50 (Mouse 11β-HSD-1): 5940 nM
- IC50 (Human 11β-HSD1): 126 nM

SMILES: CC1(C)CC2CC(C)(CN2S(=O)(=O)c2ccc(C#N)cc2)C1 (stereo not drawn) [compound 76]
- IC50 (Mouse 11β-HSD-1): 1820 nM
- IC50 (Human 11β-HSD1): 126 nM
